Assay results taken from US20230059009A1, “INHIBITORS OF LIN28 AND METHODS OF USE THEREOF” (The Regents of the University of California, priority 2019, published 2023).

What was measured:
22RV1 = assay: Cell viability, MTT assay, 22RV1; assay type: cell-based; details: 22RV1 (Prostate), 96 hr
Procedure: (§1) To measure cell viability, cell titer glow (CTG, Promega CellTiter-Glo 2.0 Assay) and MTT assays (SigmaAldrich, Cell Proliferation Kit I) were performed. Briefly, cells were serum starved overnight prior to seeding in 96-well plates. Following 24 h incubation, cells were treated with increasing concentrations of JGJ compounds for 96 hr. At assay read-out, CellTiter-Glo reagent was added and luminescence was measured after 10-minutes incubation at room temperature. For the MTT assay, MTT labeling reagent was added and incubated for 4 h. Subsequently, medium was removed and 50 μL DMSO was added to solubilize the crystals, and absorbance was measured at 570 nm. Cell viability was calculated as (Sample-Background)/(Control-Background).

LNCaP = assay: Cell viability, MTT assay, LNCaP; assay type: cell-based; details: LNCaP (Prostate)
Procedure: as §1

H1975 = assay: Cell viability, MTT assay, H1975; assay type: cell-based
Procedure: as §1

A549 = assay: Cell viability, MTT assay, A549; assay type: cell-based; details: A549 (Lung)
Procedure: as §1

H23 = assay: Cell viability, MTT assay, H23; assay type: cell-based
Procedure: as §1, with “(Sample-Background)/(Control-Background). Current standard of care drugs, Enzalutamide, Palbociclib and Cetuximab were used as comparative controls.” for “(Sample-Background)/(Control-Background).”

H460 = assay: Cell viability, MTT assay, H460; assay type: cell-based
Procedure: as §1, with “(Sample-Background)/(Control-Background). Current standard of care drugs, Enzalutamide, Palbociclib and Cetuximab were used as comparative controls.” for “(Sample-Background)/(Control-Background).”

BT-549 = assay: Cell viability, CTG, BT-549; assay type: cell-based; details: BT-549 (Breast)
Procedure: as §1, with “(Sample-Background)/(Control-Background). Current standard of care drugs, Enzalutamide, Palbociclib and Cetuximab were used as comparative controls.” for “(Sample-Background)/(Control-Background).”

MDA-MB231 = assay: Cell viability, MTT assay, MDA-MB231; assay type: cell-based
Procedure: as §1, with “(Sample-Background)/(Control-Background). Current standard of care drugs, Enzalutamide, Palbociclib and Cetuximab were used as comparative controls.” for “(Sample-Background)/(Control-Background).”

MCF7 = assay: Cell viability, MTT assay, MCF7; assay type: cell-based; details: MCF7 (Breast)
Procedure: as §1, with “(Sample-Background)/(Control-Background). Current standard of care drugs, Enzalutamide, Palbociclib and Cetuximab were used as comparative controls.” for “(Sample-Background)/(Control-Background).”

HCT-116 = assay: Cell viability, CTG, HCT-116; assay type: cell-based; details: HCT-116 (Colon)
Procedure: as §1, with “(Sample-Background)/(Control-Background). Current standard of care drugs, Enzalutamide, Palbociclib and Cetuximab were used as comparative controls.” for “(Sample-Background)/(Control-Background).”

SW620 = assay: Cell viability, MTT assay, SW620; assay type: cell-based
Procedure: as §1, with “(Sample-Background)/(Control-Background). Current standard of care drugs, Enzalutamide, Palbociclib and Cetuximab were used as comparative controls.” for “(Sample-Background)/(Control-Background).”

SW480 [1] = assay: Cell viability, MTT assay, SW480; assay type: cell-based; details: SW480 (Colon)
Procedure: as §1, with “(Sample-Background)/(Control-Background). Current standard of care drugs, Enzalutamide, Palbociclib and Cetuximab were used as comparative controls.” for “(Sample-Background)/(Control-Background).”

SW480 [2] = assay: Cell viability, CTG, SW480; assay type: cell-based; details: SW480 (Colon)
Procedure: as §1

ASPC-1 = assay: Cell viability, CTG, ASPC-1; assay type: cell-based
Procedure: as §1, with “(Sample-Background)/(Control-Background). Current standard of care drugs, Enzalutamide, Palbociclib and Cetuximab were used as comparative controls.” for “(Sample-Background)/(Control-Background).”

CAPAN-1 = assay: Cell viability, CTG, CAPAN-1; assay type: cell-based; details: CAPAN-1 (Pancreatic)
Procedure: as §1, with “(Sample-Background)/(Control-Background). Current standard of care drugs, Enzalutamide, Palbociclib and Cetuximab were used as comparative controls.” for “(Sample-Background)/(Control-Background).”

Caco2 permeability = assay type: in vitro ADME; details: human, Caco-2, Conc. 30 uM; for recovery at 30 uM: read-out: Caco2 Mean A-B % Recovery
[3] = Microsomal stability, CD-1 Mouse; assay type: in vitro ADME; details: for CLint scaled at 30 uM / half-life at 30 uM: microsomes; for half-life at 30 uM: read-out: Microsomal stability T½
[4] = Microsomal stability, Human; assay type: in vitro ADME; details: Conc. 30 uM; for CLint scaled at 30 uM / half-life at 30 uM: microsomes; for half-life at 30 uM: read-out: Microsomal stability T½
CYP 1A2 = target: T1, CYP 1A2 (Homo sapiens, UniProt P05177); assay: CYP inhibition 1A2; assay type: in vitro ADME; design: unit not given here; details: Conc. 30 uM
T1 sequence (P05177 1-516): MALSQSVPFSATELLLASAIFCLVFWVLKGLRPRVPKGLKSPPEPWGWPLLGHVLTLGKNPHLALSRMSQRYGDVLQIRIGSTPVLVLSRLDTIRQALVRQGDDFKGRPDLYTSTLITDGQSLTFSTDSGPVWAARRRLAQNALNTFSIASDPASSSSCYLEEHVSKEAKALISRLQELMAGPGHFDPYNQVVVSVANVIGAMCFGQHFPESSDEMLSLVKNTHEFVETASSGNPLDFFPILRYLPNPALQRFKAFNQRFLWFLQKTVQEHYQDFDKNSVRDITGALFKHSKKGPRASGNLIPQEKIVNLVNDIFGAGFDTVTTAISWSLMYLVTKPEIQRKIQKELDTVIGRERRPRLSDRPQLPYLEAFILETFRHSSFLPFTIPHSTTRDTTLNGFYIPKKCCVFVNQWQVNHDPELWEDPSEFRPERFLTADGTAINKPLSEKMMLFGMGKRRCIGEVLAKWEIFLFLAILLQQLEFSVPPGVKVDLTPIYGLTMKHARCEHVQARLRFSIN

CYP 2B6 = target: T2, CYP 2B6 (Homo sapiens, UniProt P20813); assay: CYP inhibition 2B6; assay type: in vitro ADME; design: unit not given here; details: Conc. 30 uM
T2 sequence (P20813 1-491): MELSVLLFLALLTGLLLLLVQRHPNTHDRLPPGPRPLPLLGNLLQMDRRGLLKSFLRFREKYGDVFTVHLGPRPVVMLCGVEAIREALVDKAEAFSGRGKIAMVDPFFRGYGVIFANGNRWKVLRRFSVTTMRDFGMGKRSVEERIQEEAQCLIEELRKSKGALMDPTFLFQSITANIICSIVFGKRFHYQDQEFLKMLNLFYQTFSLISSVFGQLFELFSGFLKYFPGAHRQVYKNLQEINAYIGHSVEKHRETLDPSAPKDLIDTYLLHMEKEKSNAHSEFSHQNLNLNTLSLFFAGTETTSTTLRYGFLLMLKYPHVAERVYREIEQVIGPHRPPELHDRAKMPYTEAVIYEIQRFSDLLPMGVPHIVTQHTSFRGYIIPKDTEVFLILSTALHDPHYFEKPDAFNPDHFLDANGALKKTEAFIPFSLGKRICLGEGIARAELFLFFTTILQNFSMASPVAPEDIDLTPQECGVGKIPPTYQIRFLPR

CYP 2D6 = CYP 2D6 (Homo sapiens, UniProt P10635); assay: CYP inhibition 2D6; assay type: in vitro ADME; design: unit not given here; details: Conc. 30 uM
CYP 2D6, sequence (P10635 whole entry): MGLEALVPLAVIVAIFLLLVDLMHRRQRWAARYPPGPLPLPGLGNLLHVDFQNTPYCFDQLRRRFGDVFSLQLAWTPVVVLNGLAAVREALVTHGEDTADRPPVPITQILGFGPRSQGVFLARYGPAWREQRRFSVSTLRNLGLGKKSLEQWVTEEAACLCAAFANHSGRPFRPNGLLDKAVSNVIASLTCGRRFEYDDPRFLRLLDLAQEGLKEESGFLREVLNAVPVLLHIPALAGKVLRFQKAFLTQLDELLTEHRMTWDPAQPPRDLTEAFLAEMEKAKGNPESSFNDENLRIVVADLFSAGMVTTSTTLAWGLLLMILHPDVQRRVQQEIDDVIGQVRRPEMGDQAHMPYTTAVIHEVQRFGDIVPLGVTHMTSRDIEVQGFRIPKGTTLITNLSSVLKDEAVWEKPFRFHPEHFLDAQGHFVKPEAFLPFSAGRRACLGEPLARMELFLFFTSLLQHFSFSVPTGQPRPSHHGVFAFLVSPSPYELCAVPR

[5] = Homo sapiens, NCI-H1975, H1975 (Lung)
[6] = Homo sapiens, NCI-H23, H23 (Lung)
[7] = Homo sapiens, NCI-H460, H460 (Lung)
[8] = Homo sapiens, MDA-MB-231, MDA-MB231 (Breast)
[9] = Homo sapiens, SW-620, SW620 (Colon)
[10] = Homo sapiens, ASPC1, ASPC-1 (Pancreatic)

Row | SMILES | IC50 (22RV1; Homo sapiens) | IC50 (LNCaP; Homo sapiens) | IC50 (H1975; [5]) | IC50 (A549; Homo sapiens) | IC50 (H23; [6]) | IC50 (H460; [7]) | IC50 (BT-549; Homo sapiens) | IC50 (MDA-MB231; [8]) | IC50 (MCF7; Homo sapiens) | IC50 (HCT-116; Homo sapiens) | IC50 (SW620; [9]) | IC50 (SW480 [1]; Homo sapiens) | IC50 (SW480 [2]; Homo sapiens) | IC50 (ASPC-1; [10]) | IC50 (CAPAN-1; Homo sapiens) | Papp A→B at 30 uM (Caco2 permeability) | Papp B→A at 30 uM (Caco2 permeability) | efflux ratio at 30 uM (Caco2 permeability) | recovery at 30 uM (Caco2 permeability) | Microsomal stability % Remaining at T30 ([3]; Conc. 30 uM) | other results
1 | CC(=O)Nc1cccc(-c2ccc3ncc(C)n3n2)c1 [JGJ007, N-(3-(3-Methylimidazo[1,2-b]pyridazin-6-yl)phenyl)acetamide] | 97 µM | 54 µM | 31 µM | 97 µM | 95 µM | 512 µM | 75 µM | 39 µM | 45 µM | 148 µM | 64 µM | 64 µM | 68 µM | 188 µM | 91 µM | 362 nm/s | 300 nm/s | 0.829 | 87% | T30 = 37.6% | CLint scaled at 30 uM ([3]; Conc. 30 uM): 15.4 L/h/kg; half-life at 30 uM ([3]; Conc. 30 uM): 21.2 min; Microsomal stability % Remaining at T30 [4]: T30 = 72.8%; CLint scaled at 30 uM [4]: 1.14 L/h/kg; half-life at 30 uM [4]: 65.6 min; CYP inhibition 1A2 (CYP 1A2): 97.3; CYP inhibition 2B6 (CYP 2B6): 45.39; CYP inhibition 2D6 (CYP 2D6): 54.08
2 | Cc1cnc2ccc(-c3cccc(F)c3)nn12 [JGJ015, 6-(3-Fluorophenyl)-3-methylimidazo[1,2-b]pyridazine] | 209 µM | 83 µM | 51 µM | 93 µM | 62 µM | 594 µM | 48 µM | 145 µM | 59 µM | 148 µM | 62 µM | 53 µM | 110 µM | 157 µM | 137 µM | 241 nm/s | 211 nm/s | 0.874 | 67.3% | T30 = 2.3% | CLint scaled at 30 uM ([3]; Conc. 30 uM): 59.3 L/h/kg; half-life at 30 uM ([3]; Conc. 30 uM): 5.52 min; Microsomal stability % Remaining at T30 [4]: T30 = 6.9%; CLint scaled at 30 uM [4]: 9.66 L/h/kg; half-life at 30 uM [4]: 7.76 min; CYP inhibition 1A2 (CYP 1A2): 96.4; CYP inhibition 2B6 (CYP 2B6): 67.27; CYP inhibition 2D6 (CYP 2D6): 19.38
3 | CC(=O)N(C)c1cccc(-c2ccc3nnc(C)n3n2)c1 [LN1632] |  |  |  |  |  |  |  |  |  |  |  |  |  |  |  |  |  |  |  |  | IC50 (22RV1): 236 µM; IC50 (LNCaP): 110 µM; IC50 (H1975; H1975 (Lung)): 91 µM; IC50 (A549): 151 µM; IC50 (H23; H23 (Lung)): 167 µM; IC50 (H460; H460 (Lung)): 172 µM; IC50 (BT-549): 151 µM; IC50 (MDA-MB231; MDA-MB231 (Breast)): 136 µM; IC50 (MCF7): 144 µM; IC50 (HCT-116): 158 µM; IC50 (SW620; SW620 (Colon)): 161 µM; IC50 (SW480 [1]): 155 µM; IC50 (SW480 [2]): 168 µM; IC50 (ASPC-1; ASPC-1 (Pancreatic)): 111 µM; IC50 (CAPAN-1): 82 µM; Microsomal stability % Remaining at T30 ([3]; Conc. 100 uM): T30 = 90.2%; Microsomal stability CLint ([3]; Conc. 100 uM): kg) = 27 mL/min/kg; Microsomal stability T½ ([3]; Conc. 100 uM): T½ = 202 min
